Laboratory results as given in patent publication US11298330B2, “Magnesium compositions and methods of use” (Neurocentria, Inc., priority 2017, dated 2022).

Tests used:
diabetic patients [1] = settings: nearly 1 g of magnesium daily for 1 month; cited from earlier work
[2] = system: young (9-month old) and aged (25-month old) rats; settings: food containing 2% magnesium oxide for 8 days, cited from earlier work
diabetic patients [3] = settings: 720 mg/day for three months; cited from earlier work
[4] = system: cultured rat hippocampal neurons; test: Probability of transmitter release (Pr) by FM dye uptake; format: cell-based; settings: extracellular magnesium concentration from 0.8 mM to 1.2 mM for 4 h
Experimental: An example of the effect of calcium and magnesium on the regulation of Probability of transmitter release (Pr) is shown in FIG. 3. In an experiment, rat hippocampal neurons were cultured in vitro in varying concentrations of extracellular calcium or magnesium, thereby effectively varying concentrations of intracellular calcium or magnesium. A traceable dye was used as a model neurotransmitter to measure the change in Pr. […] Furthermore, at a relatively low intracellular calcium concentration, the inverse relationship between intracellular magnesium concentration and Pr was more apparent, as shown in FIG. 3B. At a low calcium concentration condition, increasing the extracellular magnesium concentration promoted more synapses with a higher intracellular magnesium concentrations and low Pr values. […]
The Probability of transmitter release (Pr) of cultured rat hippocampal neurons was measured by quantification of N-β-Triethylammoniumpropyl)-4-(4-(Dibutylamino) Styryl) Pyridinium Dibromide (FM) dye uptake following a string of 30 single 1 Hertz (Hz) action potentials (Pr1Ap). […] Intracellular magnesium concentration was quantified by the intensity of MgGreen (MgGrn), a fluorescent dye that was proportional to magnesium concentration (Zhou et al., 2015).

| SMILES | increase of serum magnesium level (diabetic patients [1]) | metabolic control (diabetic patients [1]) | side-effect [2] | cognitive function ([2]; gain transient) | blood magnesium levels raised, on average (diabetic patients [3]) | metabolic control as assessed by HbAlc levels (diabetic patients [3]) | effect on calcium-Pr relationship [4] |
| --- | --- | --- | --- | --- | --- | --- | --- |
| [O]=[Mg] [magnesium oxide] | about 10% | only minor improvement | diarrhea and weight loss | some sign of improvement |  |  |  |
| [Mg+2] [magnesium] |  |  |  |  | about 10% | no improvement | shifted the calcium-Pr relationship to the right |
